Laboratory results taken from ChEMBL document CHEMBL1255235, “Molecular basis for resistance of acanthamoeba tubulins to all major classes of antitubulin compounds” (Antimicrob Agents Chemother, 2008).

Assays:
[1] = Inhibition of tubulin in Acanthamoeba castellanii by alamar blue assay
[2] = Inhibition of tubulin in Acanthamoeba polyphaga by alamar blue assay
[3] = Inhibition of tubulin in rabbit corneal cells by alamar blue assay; format: cell-based; conditions: Oryctolagus cuniculus, Cornea
Toxoplasma gondii = assay: Antimicrobial activity against Toxoplasma gondii; format: functional, organism-based
Leishmania sp. = assay: Antimicrobial activity against Leishmania sp.; format: functional, organism-based
Acanthamoeba castellanii = assay: Antimicrobial activity against Acanthamoeba castellanii; format: functional, organism-based
Acanthamoeba polyphaga = assay: Antimicrobial activity against Acanthamoeba polyphaga; format: functional, organism-based

Row | Compound | IC50 [1] | IC50 [2] | IC50 [3] | IC50 (Toxoplasma gondii) | IC50 (Leishmania sp.) | IC50 (Acanthamoeba castellanii) | IC50 (Acanthamoeba polyphaga)
1 | COc1cc2c(c(OC)c1OC)-c1ccc(OC)c(=O)cc1[C@@H](NC(C)=O)CC2 [COLCHICINE] | 2.5 µM | 2500 µM | 2.4 µM | – | – | – | –
2 | CCCN(CCC)c1c([N+](=O)[O-])cc(S(N)(=O)=O)cc1[N+](=O)[O-] [ORYZALIN] | > 100 µM | > 100 µM | > 500 µM | – | – | – | –
3 | CC[C@]1(O)C[C@@H]2CN(CCc3c([nH]c4ccccc34)[C@@](C(=O)OC)(c3cc4c(cc3OC)N(C)[C@H]3[C@@](O)(C(=O)OC)[C@H](OC(C)=O)[C@]5(CC)C=CCN6CC[C@]43[C@@H]65)C2)C1 [VINBLASTINE] | 0.68 µM | 0.68 µM | 0.017 µM | – | – | – | –
4 | CC(=O)O[C@H]1C(=O)[C@@]2(C)[C@H]([C@H](OC(=O)c3ccccc3)[C@]3(O)C[C@H](OC(=O)[C@H](O)[C@@H](NC(=O)c4ccccc4)c4ccccc4)C(C)=C1C3(C)C)[C@]1(OC(C)=O)CO[C@@H]1C[C@@H]2O [PACLITAXEL] | > 10 µM | > 10 µM | 0.04 µM | 1 µM | 0.035 µM | – | –
5 | CCCSc1ccc2[nH]c(NC(=O)OC)nc2c1 [ALBENDAZOLE] | > 47 µM | > 47 µM | 0.7 µM | – | – | – | –
6 | N=C(NCCCCCCNC(=N)NC(=N)Nc1ccc(Cl)cc1)NC(=N)Nc1ccc(Cl)cc1 [CHLORHEXIDINE] | – | – | – | – | – | 1.56 µM | 3.12 µM
